# Results published in patent publication US20170306409A1, “CANCER PATIENT SELECTION FOR ADMINISTRATION OF WNT SIGNALING INHIBITORS USING RNF43 MUTATION STATUS” (NOVARTIS AG, priority 2012, published 2017).
# Like-named read-outs stand apart in the source and are kept apart here.
# Key:
# Format in all cases: cell-based, human
# TCC-PAN2 [1] = test: pathway inhibition by LGK974 (Table 4)
# BXPC3 = test: cell line proliferation assay (Cell Titer Glo)
# Procedure: (§1) The sensitivity of pancreatic cells to LGK974 treatment were tested in a cellular proliferation assay in vitro. Twenty four human pancreatic cancer cell lines were treated with or without LGK974. Cellular proliferation data was generated in 384 well format. Cells were harvested and resuspended in their appropriate growth medium at a density of 1.5×10^4 cells per mL. […] Plates were then transferred to incubators on the ACP-1 system (37° C., 5% CO2) and cells were allowed to attach overnight. […] Following compound addition, plates were returned to the incubator for 120 hours. The assay plates were read with the addition of 10 μL of 1× Cell Titer Glo (Promega G7573) according to the manufacturer's instructions. Plates were then incubated at room temperature for ten minutes and read on the integrated Perkin Elmer Viewlux (2 second exposure, 2× bin, high sensitivity). The raw data was normalized using the DMSO control wells within each plate and the curve fitting for IC50 determination was performed. Cell growth was measured five days later with Cell Titer Glo (Promega). […] As shown in TABLE 4 and Example 4, all four cell lines harbor RNF43 loss-of-function (LOF) mutations
# PA-TU-8902 = test: cell line proliferation assay (Cell Titer Glo)
# Procedure: as §1
# SW1990 = test: cell line proliferation assay (Cell Titer Glo)
# Procedure: as §1
# KP-1N = test: cell line proliferation assay (Cell Titer Glo)
# Procedure: as §1
# KP-2 = test: cell line proliferation assay (Cell Titer Glo)
# Procedure: as §1
# Panc 05.04 = test: cell line proliferation assay (Cell Titer Glo)
# Procedure: as §1
# Capan-2 = test: cell line proliferation assay (Cell Titer Glo)
# Procedure: as §1
# KP-3 = test: cell line proliferation assay (Cell Titer Glo)
# Procedure: as §1
# HUP-T3 = test: cell line proliferation assay (Cell Titer Glo)
# Procedure: as §1
# PSN-1 = test: cell line proliferation assay (Cell Titer Glo)
# Procedure: as §1
# PK-1 = test: cell line proliferation assay (Cell Titer Glo)
# Procedure: as §1
# HPAFII = test: cell line proliferation assay (Cell Titer Glo)
# Procedure: as §1
# SU8686 = test: cell line proliferation assay (Cell Titer Glo)
# Procedure: as §1
# SUIT-2 = test: cell line proliferation assay (Cell Titer Glo)
# Procedure: as §1
# Panc 10.05 = test: cell line proliferation assay (Cell Titer Glo)
# Procedure: as §1
# PA-TU-8988S = test: cell line proliferation assay (Cell Titer Glo)
# Procedure: as §1
# Panc 03.27 = test: cell line proliferation assay (Cell Titer Glo)
# Procedure: as §1
# PA-TU-8988T = test: cell line proliferation assay (Cell Titer Glo)
# Procedure: as §1
# KP-1NL = test: cell line proliferation assay (Cell Titer Glo)
# Procedure: as §1
# TCC-PAN2 [2] = test: cell line proliferation assay (Cell Titer Glo); conditions: for IC50: Cell Titer Glo, read-out: LGK974 IC50s in cell line proliferation assay
# Procedure: as §1
# Panc1 = test: cell line proliferation assay (Cell Titer Glo)
# Procedure: as §1
# YAPC = test: cell line proliferation assay (Cell Titer Glo)
# Procedure: as §1
# PK-59 = test: cell line proliferation assay (Cell Titer Glo)
# Procedure: as §1
# RNF43 mutant cell lines = test: EdU proliferation assay; conditions: 1 μM LGK974, 3 days
# Procedure: Further, LGK974 induced the expression of differentiation marker MUC2, MUC5A/C in RNF43 mutant cells. LGK974 blocked EDU incorporation in RNF43 mutant cell lines, so Wnt inhibition in these cells leads to cell cycle arrest. LGK974-induced growth inhibition and cellular differentiation of RNF43 mutant cells are also obvious using Ki67 staining (anti-Ki67 (SP6) from Vector Laboratories, Burlingame, Calif., USA 94010) and Alcian Blue staining.
# For the EdU proliferation assay, cells were plated in growth medium in 96 well plate at a density of 6000-12,000 cells per well, and treated with DMSO or 1 μM LGK974. After 3 days, the cells were treated with fresh growth medium containing 20 μM EdU, which was included in the Click-iT EdU Alexa Fluor 488 HCS assay kit (Invitrogen), and the plate was incubated for 2 hr at 37° C. in a humidified atmosphere containing 5% CO2. Cells were fixed with final 4% paraformaldehyde for 30 min, washed with PBS, permeabilized, and stained with 0.75% TritonX-100 and 50 μg/ml Hoechst in PBS for 30 min. After wash, the cells were proceeded EdU detection according to the instruction of Click-iT EdU assay kit. Triplet wells were performed for each condition.
# [3] = Homo sapiens, 120 hours, Cell Titer Glo, read-out: LGK974 IC50s in cell line proliferation assay
smiles,measurement,setting,value
"Cc1cc(-c2ncc(CC(=O)Nc3ccc(-c4cnccn4)cn3)cc2C)ccn1 [LGK974, 2-[5-methyl-6-(2-methylpyridin-4-yl)pyridin-3-yl]-N-[5-(pyrazin-2-yl)pyridin-2-yl]acetamide]",Pathway inhibition,TCC-PAN2 [1],Yes
same,Inhibition fold change (1-Treated/Control),BXPC3; BxPC3,0.01
same,IC50,"BXPC3; Homo sapiens, BXPC-3, BXPC3, 120 hours, Cell Titer Glo, read-out: LGK974 IC50s in cell line proliferation assay",> 2000 nM
same,Inhibition fold change (1-Treated/Control),PA-TU-8902,0.02
same,IC50,"PA-TU-8902; Homo sapiens, PaTu 8902, 120 hours, Cell Titer Glo, read-out: LGK974 IC50s in cell line proliferation assay",> 2000 nM
same,Inhibition fold change (1-Treated/Control),SW1990,0.03
same,IC50,SW1990; [3],> 2000 nM
same,Inhibition fold change (1-Treated/Control),KP-1N,0.01
same,IC50,KP-1N; [3],> 2000 nM
same,Inhibition fold change (1-Treated/Control),KP-2,0.06
same,IC50,KP-2; [3],> 2000 nM
same,IC50,"Panc 05.04; Homo sapiens, Panc 05.04, 120 hours, Cell Titer Glo, read-out: LGK974 IC50s in cell line proliferation assay",> 2000 nM
same,Inhibition fold change (1-Treated/Control),Panc 05.04; Panc05.04,0.09
same,Inhibition fold change (1-Treated/Control),Capan-2,0.40
same,IC50,Capan-2; [3],1.8 nM
same,Inhibition fold change (1-Treated/Control),KP-3,0.02
same,IC50,KP-3; [3],> 2000 nM
same,Inhibition fold change (1-Treated/Control),HUP-T3,0.07
same,IC50,HUP-T3; [3],> 2000 nM
same,Inhibition fold change (1-Treated/Control),PSN-1,0.06
same,IC50,"PSN-1; Homo sapiens, PSN1, 120 hours, Cell Titer Glo, read-out: LGK974 IC50s in cell line proliferation assay",> 2000 nM
same,Inhibition fold change (1-Treated/Control),PK-1,0.00
same,IC50,PK-1; [3],> 2000 nM
same,Inhibition fold change (1-Treated/Control),HPAFII,0.50
same,IC50,"HPAFII; Homo sapiens, HPAF-II, 120 hours, Cell Titer Glo, read-out: LGK974 IC50s in cell line proliferation assay",33.6 nM
same,Inhibition fold change (1-Treated/Control),SU8686,0.03
same,IC50,"SU8686; Homo sapiens, SU.86.86, 120 hours, Cell Titer Glo, read-out: LGK974 IC50s in cell line proliferation assay",> 2000 nM
same,Inhibition fold change (1-Treated/Control),SUIT-2,0.00
same,IC50,SUIT-2; [3],> 2000 nM
same,IC50,"Panc 10.05; Homo sapiens, Panc1005, Panc 10.05, 120 hours, Cell Titer Glo, read-out: LGK974 IC50s in cell line proliferation assay",> 2000 nM
same,Inhibition fold change (1-Treated/Control),Panc 10.05; Panc10.05,0.02
same,Inhibition fold change (1-Treated/Control),PA-TU-8988S,0.40
same,IC50,"PA-TU-8988S; Homo sapiens, PaTuÂ 8988s, 120 hours, Cell Titer Glo, read-out: LGK974 IC50s in cell line proliferation assay",11.6 nM
same,IC50,"Panc 03.27; Homo sapiens, PANC-03-27, Panc 03.27, 120 hours, Cell Titer Glo, read-out: LGK974 IC50s in cell line proliferation assay",> 2000 nM
same,Inhibition fold change (1-Treated/Control),Panc 03.27; Panc03.27,0.06
same,Inhibition fold change (1-Treated/Control),PA-TU-8988T,0.00
same,IC50,"PA-TU-8988T; Homo sapiens, PaTu 8988t, 120 hours, Cell Titer Glo, read-out: LGK974 IC50s in cell line proliferation assay",> 2000 nM
same,Inhibition fold change (1-Treated/Control),KP-1NL,0.00
same,IC50,KP-1NL; [3],> 2000 nM
same,Inhibition fold change (1-Treated/Control),TCC-PAN2 [2],0.02
same,IC50,TCC-PAN2 [2]; 120 hours,> 2000 nM
same,IC50,"TCC-PAN2 [2]; Homo sapiens, 120 h",> 1700 nM
same,Inhibition fold change (1-Treated/Control),Panc1,0.00
same,IC50,"Panc1; Homo sapiens, PANC-1, 120 hours, Cell Titer Glo, read-out: LGK974 IC50s in cell line proliferation assay",> 2000 nM
same,Inhibition fold change (1-Treated/Control),YAPC,0.20
same,IC50,YAPC; [3],> 2000 nM
same,Inhibition fold change (1-Treated/Control),PK-59,0.06
same,IC50,PK-59; [3],> 2000 nM
same,EDU incorporation,RNF43 mutant cell lines,blocked
